Reference: PubChem BioAssay AID1259411 (Chemical Carcinogenesis Research Information System (CCRIS), 2018)
Calls of active or inactive are those of the source. The rule behind the calls is not given here.

System: rodent carcinogenicity bioassays, tumor incidence
Assay: CCRIS carcinogenicity studies
Settings: Dose: 0
Method in brief: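 NCI-built, expert-reviewed records of carcinogenicity and related test outcomes (mutagenicity, tumor promotion/inhibition) compiled from published and report sources, historical span 1985-2011, not updated.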

With `C/C=C/C=O` the carcinogen call (Species: MOUSE, Strain/Sex: B6C3F1/FEMALE, Route: INTRAPERITONEAL, 1500 NMOL TOTAL DOSE, 1/3 AND 2/3 OF THE TOTAL DOSE ADMINISTERED AT 8 AND 15 DAYS OF AGE RESPECTIVELY, ANIMALS TERMIN) was “inactive; negative”, the carcinogen call (Species: MOUSE, Strain/Sex: B6C3F1/FEMALE, Route: INTRAPERITONEAL, 3000 NMOL TOTAL DOSE, 1/3 AND 2/3 OF THE TOTAL DOSE ADMINISTERED AT 8 AND 15 DAYS OF AGE RESPECTIVELY, ANIMALS TERMIN) was “inactive; negative” and the carcinogen call (Species: MOUSE, Strain/Sex: B6C3F1/MALE, Route: INTRAPERITONEAL, 1500 NMOL TOTAL DOSE, 1/3 AND 2/3 OF THE TOTAL DOSE ADMINISTERED AT 8 AND 15 DAYS OF AGE RESPECTIVELY, ANIMALS TERMIN) was “inactive; negative”. For the same compound, the carcinogen call (Species: MOUSE, Strain/Sex: B6C3F1/MALE, Route: INTRAPERITONEAL, 3000 NMOL TOTAL DOSE, 1/3 AND 2/3 OF THE TOTAL DOSE ADMINISTERED AT 8 AND 15 DAYS OF AGE RESPECTIVELY, ANIMALS TERMIN) was “inactive; negative”.
With `OCc1c2ccccc2cc2c1ccc1ccccc12` the carcinogen call (Species: RAT, Strain/Sex: SPRAGUE-DAWLEY/FEMALE, Route: SUBCUTANEOUS, 0.2 UMOL IN SESAME OIL:DMSO (9:1) 3/WK FOR 20 DOSES (STUDY DURATION: 52 WK), Tumor Site: Type of Lesion: INJECTION SITE: SARCOMA) was “active; positive”.
For `S=P(N1CC1)(N1CC1)N1CC1`, the carcinogen call (Species: MOUSE, Strain/Sex: B6C3F1/FEMALE, Route: INTRAPERITONEAL, 1.15, 2.3 MG/KG 3/WK FOR 43-52 WK (STUDY DURATION: 86-87 WK), 1.15, 2.3 MG/KG 3/WK FOR 43-52 WK (STUDY DURATION: 86-87 WK), Tumor Site: Type of Lesion: HEMATOPOIETIC SYSTEM (LEUKEMIA): LYMPHOCYTIC LEUKEMIA, LYMPHATIC SYSTEM: LYMPHOMA) was “active; positive”, the carcinogen call (Species: MOUSE, Strain/Sex: B6C3F1/MALE, Route: INTRAPERITONEAL, 1.15, 2.3 MG/KG 3/WK FOR 52 WK (STUDY DURATION: 56-87 WK), 1.15, 2.3 MG/KG 3/WK FOR 52 WK (STUDY DURATION: 56-87 WK), Tumor Site: Type of Lesion: INTEGUMENTARY SYSTEM (SKIN): SQUAMOUS CELL CARCINOMA, HEMATOPOIETIC SYSTEM (LEUKEMIA), LYMPHATIC SYSTEM: LYMPHOMA, EAR (, Tumor Site: Type of Lesion: INTEGUMENTARY SYSTEM (SKIN): SQUAMOUS CELL CARCINOMA, HEMATOPOIETIC SYSTEM (LEUKEMIA), LYMPHATIC SYSTEM: LYMPHOMA, EAR () was “active; positive” and the carcinogen call (Species: RAT, Strain/Sex: SPRAGUE-DAWLEY/FEMALE, Route: INTRAPERITONEAL, 0.7, 1.4, 2.8 MG/KG 3/WK FOR 21-52 WK (STUDY DURATION: 21-87 WK), 0.7, 1.4, 2.8 MG/KG 3/WK FOR 21-52 WK (STUDY DURATION: 21-87 WK), Tumor Site: Type of Lesion: MAMMARY GLAND: ADENOCARCINOMA, PITUITARY GLAND: CHROMOPHOBE ADENOMA) was “active; positive”. For the same compound, the carcinogen call (Species: RAT, Strain/Sex: SPRAGUE-DAWLEY/MALE, Route: INTRAPERITONEAL, 0.7, 1.4, 2.8 MG/KG 3/WK FOR 19-52 WK (STUDY DURATION: 19-87 WK), 0.7, 1.4, 2.8 MG/KG 3/WK FOR 19-52 WK (STUDY DURATION: 19-87 WK), Tumor Site: Type of Lesion: INTEGUMENTARY SYSTEM (SKIN): SQUAMOUS CELL CARCINOMA, INTEGUMENTARY SYSTEM (SUBCUTANEOUS TISSUE): SARCOMA, HEMATOPOIETIC, Tumor Site: Type of Lesion: INTEGUMENTARY SYSTEM (SKIN): SQUAMOUS CELL CARCINOMA, INTEGUMENTARY SYSTEM (SUBCUTANEOUS TISSUE): SARCOMA, HEMATOPOIETIC) was “active; positive”.
`O=[N+]([O-])c1ccc(/C=C/c2cnc(N(CO)CO)nn2)o1` was tested, and the carcinogen call (Species: RAT, Strain/Sex: WISTAR/MALE, Route: ORAL, 350, 1750, 3500 PPM IN POWDERED BASAL DIET (STUDY DURATION: 35 WK), 350, 1750, 3500 PPM IN POWDERED BASAL DIET (STUDY DURATION: 35 WK), Tumor Site: Type of Lesion: FORESTOMACH, SQUAMOUS CELL PAPILLOMA, DUODENUM: ADENOCARCINOMA, SMALL INTESTINE: ADENOCARCINOMA, Tumor Site: Type of Lesion: FORESTOMACH, SQUAMOUS CELL PAPILLOMA, DUODENUM: ADENOCARCINOMA, SMALL INTESTINE: ADENOCARCINOMA) was “active; positive”.
With `CCn1cc(C(=O)O)c(=O)c2cc3c(cc21)OCO3` the carcinogen call (Species: MOUSE, Strain/Sex: ICR/FEMALE, Route: ORAL, 50, 150, 500 PPM IN DIET FOR 78 WK (STUDY DURATION: 78 WK), 50, 150, 500 PPM IN DIET FOR 78 WK (STUDY DURATION: 78 WK)) was “inactive; negative”, the carcinogen call (Species: MOUSE, Strain/Sex: ICR/MALE, Route: ORAL, 50, 150, 500 PPM IN DIET FOR 78 WK (STUDY DURATION: 78 WK), 50, 150, 500 PPM IN DIET FOR 78 WK (STUDY DURATION: 78 WK)) was “inactive; negative” and the carcinogen call (Species: RAT, Strain/Sex: WISTAR/FEMALE, Route: ORAL, 30, 100, 300, 1000 PPM IN DIET FOR 104 WK (STUDY DURATION: 104 WK), 30, 100, 300, 1000 PPM IN DIET FOR 104 WK (STUDY DURATION: 104 WK)) was “inactive; negative”. The carcinogen call (Species: RAT, Strain/Sex: WISTAR/MALE, Route: ORAL, 30, 100, 300, 1000 PPM IN DIET FOR 104 WK (STUDY DURATION: 104 WK), 30, 100, 300, 1000 PPM IN DIET FOR 104 WK (STUDY DURATION: 104 WK), Tumor Site: Type of Lesion: TESTIS: BENIGN LEYDIG CELL TUMOR) was “active; positive”.
For `CCC(=O)N(O)c1ccc(/C=C/c2ccccc2)cc1`, the carcinogen call (Species: RAT, Strain/Sex: STRAIN-CD/FEMALE, Route: INTRAPERITONEAL, 10 UMOL/KG BW 2/WK FOR 6 WK (STUDY DURATION: 62 WK), Tumor Site: Type of Lesion: LIVER: NEOPLASTIC NODULE, MAMMARY GLAND: TUMOR, EAR DUCT: TUMOR, PITUITARY GLAND: CARCINOMA, Tumor Site: Type of Lesion: LIVER: NEOPLASTIC NODULE, MAMMARY GLAND: TUMOR, EAR DUCT: TUMOR, PITUITARY GLAND: CARCINOMA) was “active; positive” and the carcinogen call (Species: RAT, Strain/Sex: STRAIN-CD/MALE, Route: INTRAPERITONEAL, 10 UMOL/KG BW 2/WK FOR 6 WK (STUDY DURATION: 62 WK), Tumor Site: Type of Lesion: TESTICLE: MESOTHELIOMA, PANCREAS(ACINUS): ADENOMA, PANCREAS(ISLET CELL): CARCINOMA, EAR DUCT: ADENOMA, CARCINOMA, LIVER:, Tumor Site: Type of Lesion: TESTICLE: MESOTHELIOMA, PANCREAS(ACINUS): ADENOMA, PANCREAS(ISLET CELL): CARCINOMA, EAR DUCT: ADENOMA, CARCINOMA, LIVER:) was “active; positive”.
